# Test results taken from the NIST ThermoML archive (doi:10.1016/j.tca.2013.11.010).
# Numbers after ± are expanded uncertainties.
# How the values were obtained:
# [1] = for surface tension liquid-gas: Drop volume; for viscosity / speed of sound / mass density: 101.33 kPa; for viscosity / speed of sound / mass density / vapor or sublimation pressure: Liquid; for viscosity: Capillary tube (Ostwald / Ubbelohde) method; for speed of sound: Sing-around technique in a fixed-path interferometer; for mass density: Vibrating tube method; for vapor or sublimation pressure: Ebulliometric method (Recirculating still)
# [2] = refractive index (Na D-line) (dimensionless); settings: 101.33 kPa, Liquid, Standard Abbe refractometry
# [3] = relative permittivity at various frequencies (dimensionless); settings: 101.3 kPa, Liquid, Frequency=2 MHz, Parallel plate capacitor
compound,measurement,setting,value
COC(=O)C(C)O (stereo unspecified) [methyl 2-hydroxypropanoate],surface tension liquid-gas,[1]; 278.15 K,35.05 ± 0.39 mN/m
same,viscosity,[1]; 278.15 K,5.21 ± 0.12 mPa·s
same,speed of sound,[1]; 278.15 K,1416.4 ± 2.3 m/s
same,mass density,[1]; 278.15 K,1109.61 ± 1.1 kg/m3
same,surface tension liquid-gas,[1]; 280.65 K,34.8 ± 0.39 mN/m
same,viscosity,[1]; 280.65 K,4.706 ± 0.11 mPa·s
same,speed of sound,[1]; 280.65 K,1407.1 ± 2.3 m/s
same,mass density,[1]; 280.65 K,1106.86 ± 1.1 kg/m3
same,surface tension liquid-gas,[1]; 283.15 K,34.53 ± 0.39 mN/m
same,viscosity,[1]; 283.15 K,4.281 ± 0.098 mPa·s
same,speed of sound,[1]; 283.15 K,1397.6 ± 2.3 m/s
same,mass density,[1]; 283.15 K,1104.11 ± 1.1 kg/m3
same,surface tension liquid-gas,[1]; 285.65 K,34.25 ± 0.38 mN/m
same,viscosity,[1]; 285.65 K,3.916 ± 0.09 mPa·s
same,speed of sound,[1]; 285.65 K,1387.9 ± 2.3 m/s
same,mass density,[1]; 285.65 K,1101.34 ± 1.1 kg/m3
same,surface tension liquid-gas,[1]; 288.15 K,34.04 ± 0.38 mN/m
same,viscosity,[1]; 288.15 K,3.588 ± 0.082 mPa·s
same,speed of sound,[1]; 288.15 K,1378.2 ± 2.3 m/s
same,mass density,[1]; 288.15 K,1098.57 ± 1 kg/m3
same,surface tension liquid-gas,[1]; 290.65 K,33.73 ± 0.38 mN/m
same,viscosity,[1]; 290.65 K,3.299 ± 0.076 mPa·s
same,speed of sound,[1]; 290.65 K,1368.2 ± 2.3 m/s
same,mass density,[1]; 290.65 K,1095.79 ± 1 kg/m3
same,surface tension liquid-gas,[1]; 293.15 K,33.47 ± 0.37 mN/m
same,viscosity,[1]; 293.15 K,3.043 ± 0.07 mPa·s
same,speed of sound,[1]; 293.15 K,1358.4 ± 2.3 m/s
same,mass density,[1]; 293.15 K,1093.01 ± 1 kg/m3
same,surface tension liquid-gas,[1]; 295.65 K,33.14 ± 0.37 mN/m
same,viscosity,[1]; 295.65 K,2.819 ± 0.065 mPa·s
same,speed of sound,[1]; 295.65 K,1348.6 ± 2.3 m/s
same,mass density,[1]; 295.65 K,1090.23 ± 1 kg/m3
same,surface tension liquid-gas,[1]; 298.15 K,32.9 ± 0.37 mN/m
same,viscosity,[1]; 298.15 K,2.618 ± 0.06 mPa·s
same,speed of sound,[1]; 298.15 K,1338.8 ± 2.3 m/s
same,mass density,[1]; 298.15 K,1087.43 ± 1 kg/m3
same,surface tension liquid-gas,[1]; 300.65 K,32.6 ± 0.37 mN/m
same,viscosity,[1]; 300.65 K,2.438 ± 0.056 mPa·s
same,speed of sound,[1]; 300.65 K,1329.2 ± 2.3 m/s
same,mass density,[1]; 300.65 K,1084.64 ± 1 kg/m3
same,surface tension liquid-gas,[1]; 303.15 K,32.25 ± 0.36 mN/m
same,viscosity,[1]; 303.15 K,2.277 ± 0.052 mPa·s
same,speed of sound,[1]; 303.15 K,1319.5 ± 2.3 m/s
same,mass density,[1]; 303.15 K,1081.83 ± 1 kg/m3
same,vapor or sublimation pressure,[1]; 303.15 K,0.692 ± 0.1 kPa
same,surface tension liquid-gas,[1]; 305.65 K,31.95 ± 0.36 mN/m
same,viscosity,[1]; 305.65 K,2.132 ± 0.049 mPa·s
same,speed of sound,[1]; 305.65 K,1309.9 ± 2.3 m/s
same,mass density,[1]; 305.65 K,1079.02 ± 1 kg/m3
same,surface tension liquid-gas,[1]; 308.15 K,31.58 ± 0.36 mN/m
same,viscosity,[1]; 308.15 K,2 ± 0.046 mPa·s
same,speed of sound,[1]; 308.15 K,1300.4 ± 2.3 m/s
same,mass density,[1]; 308.15 K,1076.2 ± 1 kg/m3
same,vapor or sublimation pressure,[1]; 308.15 K,0.967 ± 0.1 kPa
same,surface tension liquid-gas,[1]; 310.65 K,31.23 ± 0.35 mN/m
same,viscosity,[1]; 310.65 K,1.881 ± 0.043 mPa·s
same,speed of sound,[1]; 310.65 K,1290.9 ± 2.3 m/s
same,mass density,[1]; 310.65 K,1073.38 ± 0.99 kg/m3
same,surface tension liquid-gas,[1]; 313.15 K,30.87 ± 0.35 mN/m
same,viscosity,[1]; 313.15 K,1.772 ± 0.041 mPa·s
same,speed of sound,[1]; 313.15 K,1281.4 ± 2.3 m/s
same,mass density,[1]; 313.15 K,1070.55 ± 0.98 kg/m3
same,vapor or sublimation pressure,[1]; 313.15 K,1.333 ± 0.1 kPa
same,surface tension liquid-gas,[1]; 315.65 K,30.63 ± 0.35 mN/m
same,viscosity,[1]; 315.65 K,1.672 ± 0.038 mPa·s
same,speed of sound,[1]; 315.65 K,1271.9 ± 2.3 m/s
same,mass density,[1]; 315.65 K,1067.71 ± 0.98 kg/m3
same,surface tension liquid-gas,[1]; 318.15 K,30.34 ± 0.34 mN/m
same,viscosity,[1]; 318.15 K,1.58 ± 0.036 mPa·s
same,speed of sound,[1]; 318.15 K,1262.4 ± 2.3 m/s
same,mass density,[1]; 318.15 K,1064.86 ± 0.97 kg/m3
same,vapor or sublimation pressure,[1]; 318.15 K,1.821 ± 0.1 kPa
same,surface tension liquid-gas,[1]; 320.65 K,30.08 ± 0.34 mN/m
same,viscosity,[1]; 320.65 K,1.499 ± 0.034 mPa·s
same,speed of sound,[1]; 320.65 K,1253 ± 2.3 m/s
same,mass density,[1]; 320.65 K,1062.01 ± 0.97 kg/m3
same,surface tension liquid-gas,[1]; 323.15 K,29.71 ± 0.34 mN/m
same,viscosity,[1]; 323.15 K,1.425 ± 0.033 mPa·s
same,speed of sound,[1]; 323.15 K,1243.5 ± 2.3 m/s
same,mass density,[1]; 323.15 K,1059.15 ± 0.96 kg/m3
same,vapor or sublimation pressure,[1]; 323.15 K,2.399 ± 0.1 kPa
same,surface tension liquid-gas,[1]; 325.65 K,29.38 ± 0.33 mN/m
same,viscosity,[1]; 325.65 K,1.345 ± 0.031 mPa·s
same,speed of sound,[1]; 325.65 K,1234.1 ± 2.3 m/s
same,mass density,[1]; 325.65 K,1056.28 ± 0.95 kg/m3
same,surface tension liquid-gas,[1]; 328.15 K,29.03 ± 0.33 mN/m
same,viscosity,[1]; 328.15 K,1.29 ± 0.03 mPa·s
same,speed of sound,[1]; 328.15 K,1224.6 ± 2.3 m/s
same,mass density,[1]; 328.15 K,1053.4 ± 0.95 kg/m3
same,vapor or sublimation pressure,[1]; 328.15 K,3.173 ± 0.1 kPa
same,surface tension liquid-gas,[1]; 330.65 K,28.83 ± 0.33 mN/m
same,viscosity,[1]; 330.65 K,1.231 ± 0.028 mPa·s
same,speed of sound,[1]; 330.65 K,1215.2 ± 2.3 m/s
same,mass density,[1]; 330.65 K,1050.52 ± 0.94 kg/m3
same,surface tension liquid-gas,[1]; 333.15 K,28.52 ± 0.32 mN/m
same,viscosity,[1]; 333.15 K,1.175 ± 0.027 mPa·s
same,speed of sound,[1]; 333.15 K,1205.7 ± 2.3 m/s
same,mass density,[1]; 333.15 K,1047.63 ± 0.94 kg/m3
same,vapor or sublimation pressure,[1]; 333.15 K,4.139 ± 0.1 kPa
same,surface tension liquid-gas,[1]; 335.65 K,28.22 ± 0.32 mN/m
same,viscosity,[1]; 335.65 K,1.136 ± 0.026 mPa·s
same,speed of sound,[1]; 335.65 K,1196.3 ± 2.3 m/s
same,mass density,[1]; 335.65 K,1044.73 ± 0.93 kg/m3
same,surface tension liquid-gas,[1]; 338.15 K,27.92 ± 0.32 mN/m
same,viscosity,[1]; 338.15 K,1.075 ± 0.025 mPa·s
same,speed of sound,[1]; 338.15 K,1186.9 ± 2.3 m/s
same,mass density,[1]; 338.15 K,1041.83 ± 0.92 kg/m3
same,vapor or sublimation pressure,[1]; 338.15 K,5.319 ± 0.1 kPa
same,vapor or sublimation pressure,[1]; 343.15 K,6.889 ± 0.1 kPa
same,vapor or sublimation pressure,[1]; 348.15 K,8.652 ± 0.1 kPa
same,vapor or sublimation pressure,[1]; 353.15 K,10.81 ± 0.1 kPa
same,vapor or sublimation pressure,[1]; 358.15 K,13.49 ± 0.1 kPa
same,vapor or sublimation pressure,[1]; 363.15 K,16.6 ± 0.11 kPa
same,vapor or sublimation pressure,[1]; 368.15 K,20.3 ± 0.11 kPa
same,vapor or sublimation pressure,[1]; 373.15 K,24.7 ± 0.11 kPa
same,vapor or sublimation pressure,[1]; 378.15 K,29.68 ± 0.12 kPa
same,vapor or sublimation pressure,[1]; 383.15 K,35.5 ± 0.13 kPa
same,vapor or sublimation pressure,[1]; 388.15 K,42.28 ± 0.14 kPa
same,vapor or sublimation pressure,[1]; 393.15 K,50 ± 0.15 kPa
same,vapor or sublimation pressure,[1]; 398.15 K,58.68 ± 0.16 kPa
same,vapor or sublimation pressure,[1]; 403.15 K,68.64 ± 0.17 kPa
same,vapor or sublimation pressure,[1]; 408.15 K,79.85 ± 0.2 kPa
same,vapor or sublimation pressure,[1]; 413.15 K,92.5 ± 0.22 kPa
same,refractive index,[2]; 283.15 K,1.41831 ± 0.00054
same,refractive index,[2]; 285.65 K,1.41722 ± 0.00054
same,refractive index,[2]; 288.15 K,1.41613 ± 0.00054
same,refractive index,[2]; 290.65 K,1.41502 ± 0.00054
same,refractive index,[2]; 293.15 K,1.41392 ± 0.00054
same,refractive index,[2]; 295.65 K,1.41281 ± 0.00054
same,refractive index,[2]; 298.15 K,1.41171 ± 0.00054
same,refractive index,[2]; 300.65 K,1.41061 ± 0.00054
same,refractive index,[2]; 303.15 K,1.40949 ± 0.00054
same,refractive index,[2]; 305.65 K,1.40837 ± 0.00054
same,refractive index,[2]; 308.15 K,1.40725 ± 0.00054
same,refractive index,[2]; 310.65 K,1.40614 ± 0.00054
same,refractive index,[2]; 313.15 K,1.40502 ± 0.00054
same,refractive index,[2]; 315.65 K,1.40386 ± 0.00054
same,refractive index,[2]; 318.15 K,1.40276 ± 0.00054
same,refractive index,[2]; 320.65 K,1.40164 ± 0.00054
same,refractive index,[2]; 323.15 K,1.40051 ± 0.00054
same,refractive index,[2]; 325.65 K,1.39937 ± 0.00054
same,refractive index,[2]; 328.15 K,1.39821 ± 0.00054
same,refractive index,[2]; 330.65 K,1.3971 ± 0.00054
same,refractive index,[2]; 333.15 K,1.39596 ± 0.00054
same,refractive index,[2]; 335.65 K,1.39479 ± 0.00054
same,refractive index,[2]; 338.15 K,1.39365 ± 0.00054
same,relative permittivity,[3]; 278.15 K,18.379 ± 0.18
same,relative permittivity,[3]; 280.65 K,18.095 ± 0.18
same,relative permittivity,[3]; 283.15 K,17.817 ± 0.18
same,relative permittivity,[3]; 285.65 K,17.634 ± 0.18
same,relative permittivity,[3]; 288.15 K,17.353 ± 0.17
same,relative permittivity,[3]; 290.65 K,17.06 ± 0.17
same,relative permittivity,[3]; 293.15 K,16.779 ± 0.17
same,relative permittivity,[3]; 295.65 K,16.493 ± 0.17
same,relative permittivity,[3]; 298.15 K,16.21 ± 0.16
same,relative permittivity,[3]; 300.65 K,15.923 ± 0.16
same,relative permittivity,[3]; 303.15 K,15.647 ± 0.16
same,relative permittivity,[3]; 305.65 K,15.412 ± 0.15
same,relative permittivity,[3]; 308.15 K,15.093 ± 0.15
same,relative permittivity,[3]; 310.65 K,14.861 ± 0.15
same,relative permittivity,[3]; 313.15 K,14.598 ± 0.15
same,relative permittivity,[3]; 315.65 K,14.355 ± 0.14
same,relative permittivity,[3]; 318.15 K,14.127 ± 0.14
same,relative permittivity,[3]; 320.65 K,13.9 ± 0.14
same,relative permittivity,[3]; 323.15 K,13.666 ± 0.14
same,relative permittivity,[3]; 325.65 K,13.359 ± 0.13
same,relative permittivity,[3]; 328.15 K,13.113 ± 0.13
same,relative permittivity,[3]; 330.65 K,12.879 ± 0.13
same,relative permittivity,[3]; 333.15 K,12.631 ± 0.13
same,relative permittivity,[3]; 335.65 K,12.319 ± 0.12
same,relative permittivity,[3]; 338.15 K,12.012 ± 0.12
